{
  "source": "paper PMC5808360",
  "about": "“Neutral Porphyrin Derivative Exerts Anticancer Activity by Targeting Cellular Topoisomerase I (Top1) and Promotes Apoptotic Cell Death without Stabilizing Top1-DNA Cleavage Complexes” (Journal of Medicinal Chemistry, 2017)",
  "key": {"[1]": {"system": "relaxed pBS (SK+) plasmid DNA", "assay": "Topoisomerase I unwinding assay (DNA intercalation)", "details": "m-AMSA and etoposide 50 and 300 μM; compound 8 50, 100, 300 μM", "method": "Therefore, compound 8 interacts in reversible manner with Top1 to inhibit the plasmid relaxation activity (Figure 1).\nThe competence of the drug to intercalate into plasmid DNA was determined by Top1 unwinding assay.[36],[44] Assays were performed with 50 fmol of pBluscript (SK+) DNA in the presence or absence of compound 8, m-AMSA, and etoposide at indicated concentrations. Excess of DNA topoisomerase I was reacted with supercoiled plasmid DNA to generate relaxed DNA for the unwinding assays. The relaxed DNA was purified by proteolytic digestion with proteinase K at 37 °C, followed by phenol/chloroform extraction and ethanol precipitation. The unwinding assays were carried out at 37 °C for 15 min with independent compounds and were analyzed by 1% agarose gel as described above."}, "[2]": {"biological_target": "T1, EGFP-human Top1 in MCF7 cells (Homo sapiens, UniProt P11387)", "T1 construct": "expressed in transfected cells; host or cells: MCF7 cells, transient transfection (Lipofectamine 2000)", "T1 sequence (P11387 1-765)": "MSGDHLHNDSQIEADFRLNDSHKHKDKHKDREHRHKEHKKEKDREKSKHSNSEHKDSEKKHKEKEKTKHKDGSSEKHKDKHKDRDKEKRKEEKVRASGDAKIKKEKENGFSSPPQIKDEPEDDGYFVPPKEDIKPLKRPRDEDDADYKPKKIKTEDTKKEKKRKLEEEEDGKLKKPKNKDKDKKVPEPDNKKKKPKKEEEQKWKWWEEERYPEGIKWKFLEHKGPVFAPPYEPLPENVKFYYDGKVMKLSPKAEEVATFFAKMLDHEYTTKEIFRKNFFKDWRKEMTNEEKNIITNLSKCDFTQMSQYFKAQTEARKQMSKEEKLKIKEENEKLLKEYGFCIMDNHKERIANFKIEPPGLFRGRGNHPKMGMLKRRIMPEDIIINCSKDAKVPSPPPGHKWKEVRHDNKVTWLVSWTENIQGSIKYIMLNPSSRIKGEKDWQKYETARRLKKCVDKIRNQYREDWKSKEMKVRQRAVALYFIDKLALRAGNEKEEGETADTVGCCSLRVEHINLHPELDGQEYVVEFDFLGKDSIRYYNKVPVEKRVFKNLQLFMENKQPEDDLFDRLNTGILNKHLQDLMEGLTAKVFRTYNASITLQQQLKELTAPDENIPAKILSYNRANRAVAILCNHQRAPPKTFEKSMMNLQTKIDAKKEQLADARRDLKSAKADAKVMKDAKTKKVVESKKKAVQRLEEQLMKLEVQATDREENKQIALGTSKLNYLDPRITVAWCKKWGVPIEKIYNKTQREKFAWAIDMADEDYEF", "assay": "FRAP of EGFP-Top1 in live MCF7 cells", "type": "cell-based", "details": "5 μM, 10 min", "method": "To obtain direct evidence for compound 8 mediated inhibition of Top1cc formation in live human carcinoma cells, we used MCF7 cells and transiently expressed EGFP-Top1. Live cells expressing ectopic Top1 were analyzed under laser confocal microscopy equipped with fluorescence recovery after photobleaching (FRAP) technology.[40]−[42]\nPhotobleaching experiments were performed as described formerly[40]−[42] using Andor Spining disk inverted confocal laser-scanning microscope equipped with a 60×/1.42 NA oil-immersion objective (Olympus) and with a CO2-controlled on-stage heated environmental chamber set to 37 °C. FRAP analyses were carried out with living MCF7 cells ectopically expressing EGFP-human Top1 grown on chamber cover glass (Genetix, India) and drug treated as indicated. For FRAP analysis, a subnuclear spot was bleached for 30 ms by solid-state laser line (488 nm for EGFP) adapted to the fluorescent protein of interest and FRAP curves were generated individually normalized to the prebleach signal as described previously.[42]"}, "[3]": {"biological_target": "T2, cellular Top1 in MCF7 cells (Homo sapiens, UniProt P11387)", "T2 construct": "endogenous in cells; host or cells: MCF7 cells", "T2 sequence (P11387 2-765 limits assumed)": "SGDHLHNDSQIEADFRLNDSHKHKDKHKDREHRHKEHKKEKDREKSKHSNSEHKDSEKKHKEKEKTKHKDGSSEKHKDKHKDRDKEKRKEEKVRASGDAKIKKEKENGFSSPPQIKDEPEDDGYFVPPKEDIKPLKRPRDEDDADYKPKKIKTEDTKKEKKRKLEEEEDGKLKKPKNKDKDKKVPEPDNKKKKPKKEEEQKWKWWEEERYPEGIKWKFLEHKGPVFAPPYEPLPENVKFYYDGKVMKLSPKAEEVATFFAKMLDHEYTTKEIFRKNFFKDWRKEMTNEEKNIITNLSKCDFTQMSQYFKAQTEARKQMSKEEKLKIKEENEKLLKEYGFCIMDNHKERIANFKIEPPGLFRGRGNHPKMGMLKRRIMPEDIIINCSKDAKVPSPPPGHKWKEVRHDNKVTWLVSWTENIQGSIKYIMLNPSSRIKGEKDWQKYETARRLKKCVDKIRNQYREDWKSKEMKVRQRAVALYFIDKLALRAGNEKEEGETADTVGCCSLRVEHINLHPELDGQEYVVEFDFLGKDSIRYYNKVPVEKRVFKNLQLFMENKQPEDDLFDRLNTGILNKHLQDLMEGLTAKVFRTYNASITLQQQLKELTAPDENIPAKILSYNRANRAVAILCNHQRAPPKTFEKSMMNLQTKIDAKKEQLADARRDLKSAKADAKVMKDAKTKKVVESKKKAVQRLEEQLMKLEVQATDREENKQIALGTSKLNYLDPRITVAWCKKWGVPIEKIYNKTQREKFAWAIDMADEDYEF", "assay": "Western blot of Top1 in whole cell extracts of treated MCF7 cells", "type": "cell-based", "details": "MG132 100 nM preincubated 4 h, then compound 8 10 μM 12 h", "method": "Because compound 8 binds with free Top1 (Figure 3) and inhibits Top1cc formation in live cells (Figure 2E), we examined the impact of compound 8 on endogenous Top1. Cellular lysates were prepared from MCF7 cells treated with compound 8 for indicated times and were analyzed by Western blotting. […] Because proteasome has been implicated for Top1 degradation,[7],[9],[45] we used proteasome specific inhibitor (MG132) to investigate Top1 proteolysis in compound 8 treated cells.\nPreparation of whole cell extracts from MCF7 cells and immunoblotting were carried out as described.[6],[40],[41] Immunoreactivity was detected using ECL chemiluminescence reaction (Amersham) under ChemiDoc MP system (Bio-Rad, USA)."}, "MCF7 cells [4]": {"system": "MCF7 cells", "assay": "Measurement of intracellular ROS (H2DCFDA)", "type": "cell-based, human", "details": "NAC 10 mM pretreatment 30 min before compound 8 10 μM", "source_text": "Next, to investigate the mechanistic link between compound 8 induced cellular Top1 inhibition (Figure 1), degradation (Figure 4A and Figure 4B), and activation of apoptosis (Figure 4C), we tested reactive oxygen species (ROS) formation and accumulation of oxidative DNA fragmentation[15],[17],[46] in compound 8 treated MCF7 cells. […] We observed a marked elevation (∼3- to 5-fold) in ROS accumulation (Figure 5A) under similar conditions that activate PARP1 cleavage (Figure 4C). Nonetheless, MCF7 cells pretreated with N-acetylcysteine (NAC), a specific inhibitor of ROS, reduced compound 8 induced ROS generation by ∼3-fold (Figure 5A).\nIntracellular ROS was detected in drug-treated MCF7 cells with or without pretreatment of N-acetyl-L-cysteine (NAC) for indicated time as described.[13],[46] Briefly, cells were washed and resuspended in 500 μL of 1× PBS and were loaded with 2 μg/mL of H2DCFDA (Molecular Probes) for 30 min, and green fluorescence of 2,7-dichlorofluorescein was measured at 515 nm by spectrofluorometer."}, "MCF7 cells [5]": {"system": "MCF7 cells", "assay": "Alkaline comet assay", "type": "cell-based, human", "details": "NAC 10 mM pretreatment 30 min before compound 8", "source_text": "Therefore, we directly measured compound 8 induced DNA strand breaks at single cellular level by using alkaline comet assays (Figure 5B,C) and simultaneously measured the apoptotic cell death by immunofluorescence staining of the apoptosis marker phosphatidylserine with annexin V-FITC antibody (Figure 5D,E). Compound 8 treated MCF7 cells accumulate ∼8-fold increase in DNA strand breaks (Figure 5B and Figure 5C) compared to untreated cells, resulting in ∼7-fold elevation in compound 8 induced annexin V(+) apoptotic cells (Figure 5D and Figure 5E). […] Therefore, we conclude that compound 8 triggers reactive oxygen species induced DNA degradation and apoptotic cell death without stabilizing Top1-DNA cleavage complexes.\nTo detect the levels of drug-induced DNA breaks, after treatment MCF7 cells were subjected to alkaline comet assays according to the manufacturer’s instructions (Trevigen, USA) and comet length was measured and was scored for at least 50 cells. Distributions of comet lengths were compared using the Student’s t-test as described previously.[13],[40],[50]"}},
  "note": "Peptide text beside a SMILES is read from it. * marks the point of attachment. Cbz = O=C(OCc1ccccc1)*",
  "data": [
    {"smiles": "COc1cc([C@@H]2c3cc4c(cc3[C@@H](O[C@@H]3O[C@@H]5CO[C@@H](C)O[C@H]5[C@H](O)[C@H]3O)[C@H]3COC(=O)[C@H]23)OCO4)cc(OC)c1O", "note": "[etoposide]", "values": [
      {"measurement": "Negative supercoiling of relaxed plasmid DNA (intercalation)", "setting": "[1]", "result": "failed to show such effect"}
    ]},
    {"smiles": "CC[C@@]1(O)C(=O)OCc2c1cc1n(c2=O)Cc2cc3ccccc3nc2-1", "note": "[CPT, Camptothecin, reference compound]", "values": [
      {"measurement": "Increase of Top1 immobile population (FRAP)", "setting": "[2]", "result": "40–50%"}
    ]},
    {"smiles": "COc1cc(NS(C)(=O)=O)ccc1Nc1c2ccccc2nc2ccccc12", "note": "[m-AMSA]", "values": [
      {"measurement": "Negative supercoiling of relaxed plasmid DNA (intercalation)", "setting": "[1]", "result": "incites a net negative supercoiling of the relaxed plasmid DNA"}
    ]},
    {"smiles": "CC(C)C[C@@H](C=O)NC(=O)[C@H](CC(C)C)NC(=O)[C@H](CC(C)C)NC(=O)OCc1ccccc1", "note": "[MG132, reference compound] (Cbz-Leu-Leu-Leu-aldehyde)", "values": [
      {"measurement": "Effect on 8-induced degradation of Top1", "setting": "[3]", "result": "abrogated"}
    ]},
    {"smiles": "CC(=O)N[C@@H](CS)C(=O)O", "note": "[NAC, N-acetyl-L-cysteine]", "values": [
      {"measurement": "Reduction of compound 8 induced ROS generation", "setting": "MCF7 cells [4]", "result": "~3", "unit": "fold"},
      {"measurement": "Decrease in compound 8 induced DNA breaks", "setting": "MCF7 cells [5]", "result": "~4", "unit": "fold"}
    ]}
  ]
}
